Source: ChEMBL document CHEMBL4804284
Calls of active or inactive are those of the source. No cut-off for these calls is given here.

What was measured:
[1] = target: Serine/threonine-protein kinase DCLK3 (Homo sapiens) (UniProt Q9C098); test: Inhibition of DNA-tagged human DCAMKL3 assessed as percent of control at 50000 nM by qPCR analysis relative to control; set-up: scale not given: the % may be the effect or the level left
[2] = target: Tyrosine-protein kinase SYK (Homo sapiens) (UniProt P43405); test: Inhibition of DNA-tagged human SYK assessed as percent of control at 50000 nM by qPCR analysis relative to control; set-up: scale not given: the % may be the effect or the level left
[3] = target: Fibroblast growth factor receptor 3 (Homo sapiens) (UniProt P22607); test: Inhibition of DNA-tagged human FGFR3 assessed as percent of control at 50000 nM by qPCR analysis relative to control; set-up: scale not given: the % may be the effect or the level left
[4] = target: Cyclin-dependent kinase 7 (Homo sapiens) (UniProt P50613); test: Inhibition of DNA-tagged human CDK7 assessed as percent of control at 50000 nM by qPCR analysis relative to control; set-up: scale not given: the % may be the effect or the level left
[5] = target: Insulin receptor-related protein (Homo sapiens) (UniProt P14616); test: Inhibition of DNA-tagged human INSRR assessed as percent of control at 50000 nM by qPCR analysis relative to control; set-up: scale not given: the % may be the effect or the level left
MV4-11 = test: Cytotoxicity against human MV4-11 cells at 0.1-100 uM assessed as decrease in cell viability relative to control; type: functional, cell-based
[6] = tested on: Serine/threonine-protein kinase B-raf (Homo sapiens), P15056 [V600E]; test: Inhibition of DNA-tagged human BRAF V600E mutant assessed as percent of control at 50000 nM by qPCR analysis relative to control; set-up: scale not given: the % may be the effect or the level left
[7] = target: Calcium/calmodulin-dependent protein kinase type II subunit alpha (Homo sapiens) (UniProt Q9UQM7); test: Inhibition of DNA-tagged human CAMK2A assessed as percent of control at 50000 nM by qPCR analysis relative to control; set-up: scale not given: the % may be the effect or the level left
[8] = target: Macrophage-stimulating protein receptor (Homo sapiens) (UniProt Q04912); test: Inhibition of DNA-tagged human MST1R assessed as percent of control at 50000 nM by qPCR analysis relative to control; set-up: scale not given: the % may be the effect or the level left
[9] = target: Tyrosine-protein kinase Lyn (Homo sapiens) (UniProt P07948); test: Inhibition of DNA-tagged human LYN assessed as percent of control at 50000 nM by qPCR analysis relative to control; set-up: scale not given: the % may be the effect or the level left
[10] = tested on: Tyrosine-protein kinase ABL1 (Homo sapiens), P00519 [UNDEFINED MUTATION]; test: Inhibition of DNA-tagged non-phosphorylated human ABL1 […] mutant assessed as percent of control at 50000 nM by qPCR analysis relative to control; set-up: scale not given: the % may be the effect or the level left
[11] = target: Glycogen synthase kinase-3 alpha (Homo sapiens) (UniProt P49840); test: Inhibition of DNA-tagged human GSK3A assessed as percent of control at 50000 nM by qPCR analysis relative to control; set-up: scale not given: the % may be the effect or the level left
[12] = target: Tyrosine-protein kinase Fgr (Homo sapiens) (UniProt P09769); test: Inhibition of DNA-tagged human FGR assessed as percent of control at 50000 nM by qPCR analysis relative to control; set-up: scale not given: the % may be the effect or the level left
[13] = target: Cyclin-dependent kinase 11A (Homo sapiens) (UniProt Q9UQ88); test: Inhibition of DNA-tagged human CDC2L2 assessed as percent of control at 50000 nM by qPCR analysis relative to control; set-up: scale not given: the % may be the effect or the level left
[14] = target: SRSF protein kinase 3 (Homo sapiens) (UniProt Q9UPE1); test: Inhibition of DNA-tagged human SRPK3 assessed as percent of control at 50000 nM by qPCR analysis relative to control; set-up: scale not given: the % may be the effect or the level left
[15] = target: CDK4/Cyclin D3 (Homo sapiens) (UniProt P11802+P30281); test: Inhibition of DNA-tagged human CDK4/cyclin D3 assessed as percent of control at 50000 nM by qPCR analysis relative to control; type: protein-complex assay; set-up: scale not given: the % may be the effect or the level left
[16] = target: Serine/threonine-protein kinase LATS2 (Homo sapiens) (UniProt Q9NRM7); test: Inhibition of DNA-tagged human LATS2 assessed as percent of control at 50000 nM by qPCR analysis relative to control; set-up: scale not given: the % may be the effect or the level left
[17] = tested on: Tyrosine-protein kinase ABL1 (Homo sapiens), P00519 [T315I]; test: Inhibition of DNA-tagged phosphorylated human ABL1 T315I mutant assessed as percent of control at 50000 nM by qPCR analysis relative to control; set-up: scale not given: the % may be the effect or the level left
[18] = target: Ribosomal protein S6 kinase alpha-6 (Homo sapiens) (UniProt Q9UK32); test: Inhibition of DNA-tagged human C-terminal RSK4 kinase domain 2 assessed as percent of control at 50000 nM by qPCR analysis relative to control; set-up: scale not given: the % may be the effect or the level left
[19] = target: Dual specificity tyrosine-phosphorylation-regulated kinase 1B (Homo sapiens) (UniProt Q9Y463); test: Inhibition of DNA-tagged human DYRK1B assessed as percent of control at 50000 nM by qPCR analysis relative to control; set-up: scale not given: the % may be the effect or the level left
[20] = target: Serine/threonine-protein kinase N1 (Homo sapiens) (UniProt Q16512); test: Inhibition of DNA-tagged human PKN1 assessed as percent of control at 50000 nM by qPCR analysis relative to control; set-up: scale not given: the % may be the effect or the level left
[21] = target: Mitogen-activated protein kinase 12 (Homo sapiens) (UniProt P53778); test: Inhibition of DNA-tagged human p38-gamma assessed as percent of control at 50000 nM by qPCR analysis relative to control; set-up: scale not given: the % may be the effect or the level left
[22] = target: cAMP-dependent protein kinase catalytic subunit PRKX (Homo sapiens) (UniProt P51817); test: Inhibition of DNA-tagged human PRKX assessed as percent of control at 50000 nM by qPCR analysis relative to control; set-up: scale not given: the % may be the effect or the level left
[23] = target: Fibroblast growth factor receptor 4 (Homo sapiens) (UniProt P22455); test: Inhibition of DNA-tagged human FGFR4 assessed as percent of control at 50000 nM by qPCR analysis relative to control; set-up: scale not given: the % may be the effect or the level left
[24] = target: Serine/threonine-protein kinase tousled-like 1 (Homo sapiens) (UniProt Q9UKI8); test: Inhibition of DNA-tagged human TLK1 assessed as percent of control at 50000 nM by qPCR analysis relative to control; set-up: scale not given: the % may be the effect or the level left
[25] = target: Calcium/calmodulin-dependent protein kinase type II subunit beta (Homo sapiens) (UniProt Q13554); test: Inhibition of DNA-tagged human CAMK2B assessed as percent of control at 50000 nM by qPCR analysis relative to control; set-up: scale not given: the % may be the effect or the level left
[26] = target: Proto-oncogene tyrosine-protein kinase ROS (Homo sapiens) (UniProt P08922); test: Inhibition of DNA-tagged human ROS1 assessed as percent of control at 50000 nM by qPCR analysis relative to control; set-up: scale not given: the % may be the effect or the level left
[27] = target: Homeodomain-interacting protein kinase 1 (Homo sapiens) (UniProt Q86Z02); test: Inhibition of DNA-tagged human HIPK1 assessed as percent of control at 50000 nM by qPCR analysis relative to control; set-up: scale not given: the % may be the effect or the level left
[28] = target: Dual specificity mitogen-activated protein kinase kinase 4 (Homo sapiens) (UniProt P45985); test: Inhibition of DNA-tagged human MEK4 assessed as percent of control at 50000 nM by qPCR analysis relative to control; set-up: scale not given: the % may be the effect or the level left
[29] = tested on: Epidermal growth factor receptor (Homo sapiens), P00533 [G719S]; test: Inhibition of DNA-tagged human EGFR G719S assessed as percent of control at 50000 nM by qPCR analysis relative to control; set-up: scale not given: the % may be the effect or the level left

Mitogen-activated protein kinase 12 (Homo sapiens), sequence (P53778 whole entry): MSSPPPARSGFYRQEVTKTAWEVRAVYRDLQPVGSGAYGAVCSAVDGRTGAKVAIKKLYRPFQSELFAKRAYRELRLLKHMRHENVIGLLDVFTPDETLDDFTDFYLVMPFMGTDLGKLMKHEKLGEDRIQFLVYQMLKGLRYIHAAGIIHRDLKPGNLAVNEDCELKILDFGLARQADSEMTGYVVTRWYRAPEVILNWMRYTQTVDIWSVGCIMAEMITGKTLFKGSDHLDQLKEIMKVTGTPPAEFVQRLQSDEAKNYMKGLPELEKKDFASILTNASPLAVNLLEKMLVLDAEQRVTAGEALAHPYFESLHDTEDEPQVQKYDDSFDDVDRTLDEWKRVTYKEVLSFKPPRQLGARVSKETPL
Serine/threonine-protein kinase tousled-like 1 (Homo sapiens), sequence (Q9UKI8 whole entry): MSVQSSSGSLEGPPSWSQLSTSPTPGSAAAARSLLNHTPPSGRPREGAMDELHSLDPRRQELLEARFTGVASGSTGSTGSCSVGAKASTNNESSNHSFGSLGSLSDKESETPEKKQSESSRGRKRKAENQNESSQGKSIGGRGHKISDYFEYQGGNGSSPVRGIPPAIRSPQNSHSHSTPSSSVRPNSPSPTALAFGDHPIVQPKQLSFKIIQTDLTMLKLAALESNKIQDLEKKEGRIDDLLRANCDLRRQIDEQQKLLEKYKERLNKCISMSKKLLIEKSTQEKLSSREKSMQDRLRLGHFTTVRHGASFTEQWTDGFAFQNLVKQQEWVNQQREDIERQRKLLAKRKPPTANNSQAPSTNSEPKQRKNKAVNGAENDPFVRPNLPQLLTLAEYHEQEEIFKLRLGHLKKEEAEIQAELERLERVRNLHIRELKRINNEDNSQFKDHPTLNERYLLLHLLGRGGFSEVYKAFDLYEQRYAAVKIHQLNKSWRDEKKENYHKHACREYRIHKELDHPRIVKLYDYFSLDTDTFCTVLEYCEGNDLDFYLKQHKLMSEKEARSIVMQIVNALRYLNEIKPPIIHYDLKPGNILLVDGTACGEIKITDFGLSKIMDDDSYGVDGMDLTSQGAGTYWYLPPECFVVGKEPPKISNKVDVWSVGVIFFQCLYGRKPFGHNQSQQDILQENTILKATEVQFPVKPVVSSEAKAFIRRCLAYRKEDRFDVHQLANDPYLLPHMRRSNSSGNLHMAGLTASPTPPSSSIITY
Serine/threonine-protein kinase N1 (Homo sapiens), sequence (Q16512 2-942 limits assumed): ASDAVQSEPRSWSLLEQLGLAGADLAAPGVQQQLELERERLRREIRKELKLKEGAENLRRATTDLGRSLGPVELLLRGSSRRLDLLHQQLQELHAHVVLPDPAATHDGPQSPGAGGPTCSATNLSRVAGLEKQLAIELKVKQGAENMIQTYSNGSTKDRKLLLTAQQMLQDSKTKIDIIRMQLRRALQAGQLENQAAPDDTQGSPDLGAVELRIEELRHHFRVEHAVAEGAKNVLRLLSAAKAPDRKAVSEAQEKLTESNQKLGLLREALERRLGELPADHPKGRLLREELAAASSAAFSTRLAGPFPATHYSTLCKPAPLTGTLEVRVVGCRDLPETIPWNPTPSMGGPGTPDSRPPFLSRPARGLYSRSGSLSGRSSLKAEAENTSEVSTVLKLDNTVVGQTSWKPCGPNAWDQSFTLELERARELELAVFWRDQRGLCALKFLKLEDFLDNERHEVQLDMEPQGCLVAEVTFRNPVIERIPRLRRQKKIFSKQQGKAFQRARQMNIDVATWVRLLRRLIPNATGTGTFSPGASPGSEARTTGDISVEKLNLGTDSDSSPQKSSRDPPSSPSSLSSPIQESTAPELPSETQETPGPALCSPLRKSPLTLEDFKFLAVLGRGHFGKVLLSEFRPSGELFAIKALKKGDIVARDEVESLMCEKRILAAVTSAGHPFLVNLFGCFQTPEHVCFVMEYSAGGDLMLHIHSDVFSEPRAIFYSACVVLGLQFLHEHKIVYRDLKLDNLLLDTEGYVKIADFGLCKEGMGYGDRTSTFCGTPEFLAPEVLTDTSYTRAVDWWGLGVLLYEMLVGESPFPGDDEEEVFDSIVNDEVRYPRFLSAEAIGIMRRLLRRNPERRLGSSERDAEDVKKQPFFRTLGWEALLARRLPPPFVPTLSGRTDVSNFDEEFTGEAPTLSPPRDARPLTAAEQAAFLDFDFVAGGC
Insulin receptor-related protein (Homo sapiens), sequence (P14616 27-742 limits assumed): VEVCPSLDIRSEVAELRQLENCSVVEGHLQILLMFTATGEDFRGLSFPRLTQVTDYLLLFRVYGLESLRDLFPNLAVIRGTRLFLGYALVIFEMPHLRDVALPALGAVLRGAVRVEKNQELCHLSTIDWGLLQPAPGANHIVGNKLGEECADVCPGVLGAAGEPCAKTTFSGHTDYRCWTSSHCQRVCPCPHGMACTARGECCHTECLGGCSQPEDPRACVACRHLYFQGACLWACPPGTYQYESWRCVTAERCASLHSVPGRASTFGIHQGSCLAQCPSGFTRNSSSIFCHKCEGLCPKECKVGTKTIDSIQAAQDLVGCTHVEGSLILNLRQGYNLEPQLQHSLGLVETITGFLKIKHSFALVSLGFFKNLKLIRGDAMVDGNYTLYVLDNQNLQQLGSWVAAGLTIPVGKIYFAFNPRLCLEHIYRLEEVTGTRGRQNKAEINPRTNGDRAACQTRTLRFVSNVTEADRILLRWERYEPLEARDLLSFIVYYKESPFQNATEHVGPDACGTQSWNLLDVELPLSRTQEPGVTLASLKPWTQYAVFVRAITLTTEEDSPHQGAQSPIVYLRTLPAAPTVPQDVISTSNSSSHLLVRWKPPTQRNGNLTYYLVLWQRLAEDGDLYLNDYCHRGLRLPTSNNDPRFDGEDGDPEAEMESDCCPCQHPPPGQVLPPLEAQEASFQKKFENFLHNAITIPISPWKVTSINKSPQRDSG
Insulin receptor-related protein (Homo sapiens), sequence (P14616 747-1297 limits assumed): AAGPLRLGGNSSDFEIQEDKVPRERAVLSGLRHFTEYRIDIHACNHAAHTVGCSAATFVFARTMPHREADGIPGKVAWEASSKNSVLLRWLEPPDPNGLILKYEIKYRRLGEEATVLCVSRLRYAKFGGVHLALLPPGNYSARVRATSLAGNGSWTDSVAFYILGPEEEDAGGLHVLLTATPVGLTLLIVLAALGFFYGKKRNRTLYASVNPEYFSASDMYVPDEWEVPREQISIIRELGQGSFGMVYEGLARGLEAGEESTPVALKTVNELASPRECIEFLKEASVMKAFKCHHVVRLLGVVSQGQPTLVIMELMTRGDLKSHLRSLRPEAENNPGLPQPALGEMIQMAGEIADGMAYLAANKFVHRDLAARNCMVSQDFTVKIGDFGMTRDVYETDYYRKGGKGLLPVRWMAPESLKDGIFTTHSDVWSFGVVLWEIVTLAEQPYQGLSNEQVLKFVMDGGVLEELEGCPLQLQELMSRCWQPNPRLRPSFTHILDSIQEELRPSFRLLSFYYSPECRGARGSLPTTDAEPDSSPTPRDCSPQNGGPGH
Fibroblast growth factor receptor 4 (Homo sapiens), sequence (P22455 22-802 limits assumed): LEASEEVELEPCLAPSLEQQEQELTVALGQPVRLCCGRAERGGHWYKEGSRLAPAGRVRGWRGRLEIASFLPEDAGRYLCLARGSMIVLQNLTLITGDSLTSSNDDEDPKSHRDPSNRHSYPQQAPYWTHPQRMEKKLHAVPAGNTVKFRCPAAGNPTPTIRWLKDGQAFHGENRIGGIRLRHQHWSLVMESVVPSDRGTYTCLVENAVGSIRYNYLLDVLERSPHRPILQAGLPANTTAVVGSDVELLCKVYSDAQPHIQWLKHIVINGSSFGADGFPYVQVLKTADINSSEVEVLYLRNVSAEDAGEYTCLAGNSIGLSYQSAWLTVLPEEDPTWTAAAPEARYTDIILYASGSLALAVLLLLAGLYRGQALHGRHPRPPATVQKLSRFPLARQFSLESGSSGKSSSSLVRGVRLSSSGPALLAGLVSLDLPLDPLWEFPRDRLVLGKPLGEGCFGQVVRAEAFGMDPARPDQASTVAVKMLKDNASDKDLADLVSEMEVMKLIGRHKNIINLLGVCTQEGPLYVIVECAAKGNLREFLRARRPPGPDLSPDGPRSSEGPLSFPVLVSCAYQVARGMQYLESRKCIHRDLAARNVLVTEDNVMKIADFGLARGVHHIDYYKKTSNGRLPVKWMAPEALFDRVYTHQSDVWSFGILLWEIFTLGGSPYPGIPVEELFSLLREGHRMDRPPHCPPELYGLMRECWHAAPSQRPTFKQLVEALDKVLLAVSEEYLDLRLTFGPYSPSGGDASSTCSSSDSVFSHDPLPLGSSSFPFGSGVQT
Calcium/calmodulin-dependent protein kinase type II subunit alpha (Homo sapiens), sequence (Q9UQM7 whole entry): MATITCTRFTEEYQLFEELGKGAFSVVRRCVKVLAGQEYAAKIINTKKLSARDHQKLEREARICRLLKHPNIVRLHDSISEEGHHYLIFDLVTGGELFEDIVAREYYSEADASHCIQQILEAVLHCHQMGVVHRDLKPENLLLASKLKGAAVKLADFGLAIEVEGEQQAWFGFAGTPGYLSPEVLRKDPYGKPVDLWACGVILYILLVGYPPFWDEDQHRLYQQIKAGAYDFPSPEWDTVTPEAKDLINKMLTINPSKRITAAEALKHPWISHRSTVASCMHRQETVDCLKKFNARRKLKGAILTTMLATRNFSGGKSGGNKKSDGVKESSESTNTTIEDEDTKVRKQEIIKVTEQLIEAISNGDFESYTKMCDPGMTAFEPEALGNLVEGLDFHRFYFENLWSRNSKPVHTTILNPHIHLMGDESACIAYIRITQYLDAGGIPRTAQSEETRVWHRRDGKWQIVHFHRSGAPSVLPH
Cyclin-dependent kinase 7 (Homo sapiens), sequence (P50613 whole entry): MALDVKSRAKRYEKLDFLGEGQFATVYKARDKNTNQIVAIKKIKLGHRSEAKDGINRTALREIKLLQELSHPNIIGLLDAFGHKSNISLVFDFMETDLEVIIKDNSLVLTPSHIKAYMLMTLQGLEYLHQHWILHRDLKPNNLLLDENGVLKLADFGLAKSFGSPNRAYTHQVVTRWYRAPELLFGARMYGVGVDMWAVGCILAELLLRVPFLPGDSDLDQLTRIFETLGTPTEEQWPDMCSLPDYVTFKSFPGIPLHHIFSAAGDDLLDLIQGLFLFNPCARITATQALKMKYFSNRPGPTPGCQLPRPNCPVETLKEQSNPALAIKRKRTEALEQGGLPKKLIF

CN1C(=O)/C(=C2/C(=O)Nc3ccccc32)c2ccccc21
Activity [1]: 99%
Activity [2]: 85%
Activity [3]: 100%
Activity [4]: 100%
Activity [5]: 84%
Activity (MV4-11): Active
Activity [6]: 72%
Activity [7]: 99%
Activity [8]: 92%
Activity [9]: 100%
Activity [10]: 100%
Activity [11]: 85%
Activity [12]: 95%
Activity [13]: 100%
Activity [14]: 100%
Activity [15]: 100%
Activity [16]: 90%
Activity [17]: 98%
Activity [18]: 71%
Activity [19]: 92%
Activity [20]: 100%
Activity [21]: 92%
Activity [22]: 100%
Activity [23]: 100%
Activity [24]: 81%
Activity [25]: 86%
Activity [26]: 81%
Activity [27]: 83%
Activity [28]: 100%
Activity [29]: 94%
